Columns and labels:
α-synuclein fibrils = target: T1, α-synuclein fibrils (Homo sapiens, UniProt P37840); test: Transmission Electron Microscopy of α-synuclein fibrils at end of aggregation reaction; type: biochemical; conditions: end of the aggregation reaction
T1 construct: made in house; host or cells: E. coli BL21 (DE3)
Description: α-synuclein fibers from final point reaction (either in absence or presence of the final concentration inhibitors) were collected in Eppendorfs. After diluting the aggregated α-synuclein to a concentration of 10 μM α-synuclein, each sample was sonicated for 10 minutes. 5 μL of these samples were placed on carbon-coated copper grids and allowed to stand for 5 minutes. Then, samples were carefully dried with filter paper to remove the excess of sample. Grids were washed twice with MiliQ water by immersion and stained by incubating grids with 5 μL 2% (w/v) uranyl acetate for 2 minutes for the negative staining. After removal of the uranyl acetate excess with filter paper, grids were let to air-dry for 10 minutes. The samples were imaged using a Jeol 1400 Transmission Electron Microscopy operating at an accelerating voltage of 120 kV. 30 fields were screened at least, to obtain representative images.

[1] = target: T2, human H50Q mutant α-synuclein (Homo sapiens, UniProt P37840, H50Q); test: thioflavin-T aggregation assay, H50Q mutant; type: biochemical; conditions: 100 μM compound, 70 μM α-synuclein, 24 h
T2 construct: made in house; host or cells: E. coli BL21 (DE3)
Description: (§1) Previously lyophilized α-synuclein was carefully dissolved in PBS buffer to a final concentration of 210 μM and filtered through a Millipore s 0.22-μm filter. α-synuclein aggregation assay was performed in a 96 wells plate (non-treated, black plastic) containing in each well a Teflon polyball (3.175 mm in diameter), 40 μM thioflavin-T, 70 μM α-synuclein, 100 μM of the tested compound and PBS up to a final volume of 150 μL. Plates were fixed into an orbital culture shaker Max-Q 4000 Thermo Scientific to keep the incubation at 37° C., 100 rpm. Every 2 hours, the fluorescence intensity was measured using a Victor3.0 Multilabel Reader by exciting the mixtures with 430-450 filter and collecting the emission intensity with 480-510 filter (triplicates for each measurement). Each plate contained 3 α-synuclein controls in the absence of any compound. The averaged Th-T fluorescence obtained for these wells at the end of the experiment was normalized to 1 and the kinetic curves in the different wells re-scaled accordingly. Re-scaled curves were used to compare the controls with the effect of the tested compound and to ensure that the controls were reproducible between different experiments. […] After 2 weeks, scattering of the samples was analyzed at 300 nm and 340 nm using a Varian fluorimeter. […] Every 2 hours, the thioflavin-T fluorescence intensity was measured as described above.

[2] = target: T3, human wild-type α-synuclein (Homo sapiens, UniProt P37840); test: α-synuclein aggregation scattering assay; type: biochemical; conditions: 100 μM compound, 70 μM α-synuclein, 2 weeks, 37° C., 600 rpm
T3 construct: made in house; host or cells: E. coli BL21 (DE3)
Description: Previously lyophilized α-synuclein was carefully dissolved in PBS buffer to a final concentration of 210 μM and filtered through a Millipore s 0.22-μm filter. α-synuclein aggregation assay was performed in a 96 wells plate (non-treated, black plastic) containing in each well a Teflon polyball (3.175 mm in diameter), 40 μM thioflavin-T, 70 μM α-synuclein, 100 μM of the tested compound and PBS up to a final volume of 150 μL. Plates were fixed into an orbital culture shaker Max-Q 4000 Thermo Scientific to keep the incubation at 37° C., 100 rpm. Every 2 hours, the fluorescence intensity was measured using a Victor3.0 Multilabel Reader by exciting the mixtures with 430-450 filter and collecting the emission intensity with 480-510 filter (triplicates for each measurement). Each plate contained 3 α-synuclein controls in the absence of any compound. The averaged Th-T fluorescence obtained for these wells at the end of the experiment was normalized to 1 and the kinetic curves in the different wells re-scaled accordingly. Re-scaled curves were used to compare the controls with the effect of the tested compound and to ensure that the controls were reproducible between different experiments. […] After 2 weeks, scattering of the samples was analyzed at 300 nm and 340 nm using a Varian fluorimeter. […]

in vitro = type: cell-based; conditions: human
Description: Cultured cells of human neuroblastoma cell line SH-SY5Y were incubated for 72 h with either the vehicle (DMSO) or with different concentrations of the compound. Then, the cells were incubated with a cell viability indicator (PrestoBlue® Cell Viability Reagent). The modification of PrestoBlue® Cell Viability Reagent by the reducing environment of viable cells turns the dye red in color becoming highly fluorescent. This color change can be detected measuring fluorescence by exciting at 531 nm and detecting emission at 615 nm. The CC50 of compound D (concentration that caused death in 50% of the cells, i.e. reduction to 50% viability) was >700 μM (FIG. 6).

[3] = tested on: human wild-type α-synuclein fused to yellow fluorescent protein (YFP); test: C. elegans α-synuclein aggregation model; type: in vivo; conditions: 10 μM compound, 5 days from L4 stage, strain NL5901
Description: α-synuclein aggregation was assessed using an C. elegans in vivo model described by (Van Ham et al., 2008) and (Muñoz-Lobato et al., 2014).
The nematode strain NL5901, unc-119(ed3) III; [pkls2386 (Punc-54::α-syn::yfp; unc-119(+))] was obtained from the Caenorhabditis elegans Genetic Center (CGC), University of Minnesota, USA. The strain expresses a fusion of human wildtype α-synuclein and yellow fluorescent protein (YFP) in body wall muscle cells. The nematodes were maintained using standard procedures, grown in NGM agar plates and fed with E coli (OP50 strain). Adult worms were bleached to get synchronized nematode cultures. NGM-agar plates with a) DMSO only (vehicle) and b) 10 μM final concentration of the tested compound were prepared. Afterwards, OP50 containing a) or b) was added to NGM plates and let dry for 24 h. […] After 5 days of development (L4+5) the numbers of α-synuclein aggregates were determined using a fluorescence microscope. […] The same section in each animal was analyzed and captured in stacks to include aggregates contained from the top to the bottom of each animal ([…], 25 stacks). Image analysis was performed using ImageJ software, from the Z MAX acquisition, quantifying the number of α-synuclein-YFP aggregates. Final quantification and statistics was performed by the Graph Pad Prism 6.0 software, comparing vehicle-treated worms with drug-treated animals. […]

[4] = target: T4, human A30P mutant α-synuclein (Homo sapiens, UniProt P37840, A30P); test: thioflavin-T aggregation assay, A30P mutant; type: biochemical; conditions: 100 μM compound, 70 μM α-synuclein, 24 h
T4 construct: made in house; host or cells: E. coli BL21 (DE3)
Description: as §1

[5] = target: T3, human wild-type α-synuclein; test: α-synuclein aggregation and thioflavin-T assay; type: biochemical
Description: Previously lyophilized α-synuclein was carefully dissolved in PBS buffer to a final concentration of 210 μM and filtered through a Millipore s 0.22-μm filter. α-synuclein aggregation assay was performed in a 96 wells plate (non-treated, black plastic) containing in each well a Teflon polyball (3.175 mm in diameter), 40 μM thioflavin-T, 70 μM α-synuclein, 100 μM of the tested compound and PBS up to a final volume of 150 μL. Plates were fixed into an orbital culture shaker Max-Q 4000 Thermo Scientific to keep the incubation at 37° C., 100 rpm. Every 2 hours, the fluorescence intensity was measured using a Victor3.0 Multilabel Reader by exciting the mixtures with 430-450 filter and collecting the emission intensity with 480-510 filter (triplicates for each measurement). Each plate contained 3 α-synuclein controls in the absence of any compound. The averaged Th-T fluorescence obtained for these wells at the end of the experiment was normalized to 1 and the kinetic curves in the different wells re-scaled accordingly. Re-scaled curves were used to compare the controls with the effect of the tested compound and to ensure that the controls were reproducible between different experiments. For the titration assay, different concentrations of tested compound (200, 150, 100, 75 and 25 μM) were used. For the scattering assay, 70 μM α-synuclein, 100 μM of the tested compound or DMSO (in control samples) and PBS up to a final volume of 1 mL were incubated in low-binding plastic tubes (Protein LoBind Tube 1.5 mL, Eppendorf) using a thermomixer (Thermomixer comfort, Eppendorf) at 37° C. and 600 rpm. After 2 weeks, scattering of the samples was analyzed at 300 nm and 340 nm using a Varian fluorimeter.
Each sample was tested in triplicate. Each plate contained an also triplicated control without tested compound.
In the aggregation assay described above, α-synuclein aggregates within approximately 24 h with a sigmoidal aggregation curve.

[6] = 70 μM α-synuclein, 100 μM compound, 37° C.

Structure (SMILES): N#Cc1c(O)nc(-c2cccc([N+](=O)[O-])c2)c([N+](=O)[O-])c1C(F)(F)F [compound D, 2-hydroxy-5-nitro-6-(3-nitrophenyl)-4-(trifluoromethyl)nicotinonitrile]
- number and size of α-synuclein fibrils compared to control (TEM) (α-synuclein fibrils): significant decrease in both number and size of α-synuclein fibrils
- inhibition of human H50Q mutant α-synuclein aggregation (thioflavin-T fluorescence) [1]: inhibits
- inhibition of human wild-type α-synuclein aggregation (scattering at 300 nm and 340 nm) [2]: inhibits
- CC50 at 72 h (in vitro): > 700 µM
- α-synuclein-YFP protein inclusions in muscle cells of the worms [3]: significantly decreased
- inhibition of human A30P mutant α-synuclein aggregation (thioflavin-T fluorescence) [4]: inhibits
- delay of halftime of aggregation relative to the control [5, 6]: 3 h
- inhibition of α-synuclein aggregation at the end of the aggregation reaction relative to the control (thioflavin-T fluorescence) [5, 6]: 32.4%
- anti-aggregation activity in titration assays ([5]; 200, 150, 100, 75 and 25 μM compound, 70 μM α-synuclein): clear dose-dependent anti-aggregation activity
- k1 (nucleation rate constant), Finke-Watzky two-step model ([5]; fitted aggregation curves): decreased
- k2 (growth rate constant), Finke-Watzky two-step model ([5]; fitted aggregation curves): decreased
- activity at sub-stoichiometric protein:compound ratios ([5]; titration assay, 70 μM α-synuclein): showed activity
